Experiments:
[1] = NOVARTIS: Cytotoxicity against human hepatocellular carcinoma cell line (Huh7); format: toxicity, cell-based, Huh-7; details: Huh7 cells (hepatocellular carcinoma cell line)
[2] = tested on: Plasmodium falciparum; assay: NOVARTIS: Inhibition of Plasmodium falciparum 3D7 (drug-susceptible) proliferation in erythrocyte-based infection assay; format: functional, organism-based; details: Plasmodium falciparum, 3D7
[3] = tested on: Plasmodium falciparum; assay: NOVARTIS: Inhibition of Plasmodium falciparum W2 (drug-resistant) proliferation in erythrocyte-based infection assay; format: functional, organism-based; details: Plasmodium falciparum, W2; read-out: EC50

SMILES	CC50 [1] [nM]	EC50 [2] [nM]	EC50 [3] [nM]
O=C(CSc1oc(-c2ccc(Cl)cc2)nc1[P+](c1ccccc1)(c1ccccc1)c1ccccc1)c1ccccc1	> 10000	851	> 1180
COc1cc(CNCCCn2ccnc2)ccc1OCc1ccccc1	> 10000	> 1250	> 1170
NC(Cc1ccccc1)C(=O)N1CCC(Nc2nsc3ccccc23)C1 (configuration not stated)	12700	1110	1510
O=C(COc1cccc(Br)c1)NN=Cc1ccccc1F	> 10000	> 1250	> 1190
CCCCCN(C(=O)c1ccc(Cl)cc1)C(CC)c1nc2ccccc2c(=O)n1-c1ccccc1OC (configuration not stated)	> 8820	878	1050
COC(=O)[C@@H]1C[C@@H](NC(=O)c2ccc(OC)cc2OC)CN1CC(c1ccccc1)c1ccccc1	> 10000	590	1190
COc1cc(OC)cc(-n2c(=O)c3sccc3n(CC(=O)c3ccc(F)cc3)c2=O)c1	> 10000	> 1250	> 1170
CCCNC(=O)CSc1nc(C)c(Cc2ccccc2)c(=O)n1C	> 10000	1280	1170
CCN(CC)S(=O)(=O)c1cc(C(=O)O)ccc1Cl	> 10000	640	> 1170
CN1CCC(N[C@@H]2C[C@@H](C(=O)N3CCN(c4cccc(C(F)(F)F)c4)CC3)N(Cc3ccccc3Cl)C2)CC1	> 10000	> 1250	> 1170
O=C(Cc1ccc(F)cc1Cl)N1CCN(c2cccc3c2C(=O)N(Cc2ccccn2)C3=O)CC1	> 10000	> 1250	> 1170
CC(C)c1ccc(OCC(=O)NN=Cc2cccc([N+](=O)[O-])c2)cc1	> 10000	> 1250	> 1170
O=C(Nc1ccc(Br)cn1)c1ccc(Oc2cc(Oc3cccc(Cl)c3)cc([N+](=O)[O-])c2)cc1	> 10000	> 1250	> 1180
CCOC(=O)NN=C1c2ccccc2-c2nc3nonc3nc21	> 10000	1450	1180
C[C@H](Nc1cncc(-c2cccc(OC(F)(F)F)c2)n1)c1ccccc1	> 10000	> 264	1180
COC(=O)N(C)C(C)(C)C(C)=NOC(=O)c1ccccc1	> 10000	> 1620	> 1180
CCOP(=O)(OCC)C(O)c1ccc(C)cc1 (configuration not stated)	> 10000	> 1250	> 1180
COc1ccc(C(=O)C(CCC(CNC(C)(C)C)C(=O)c2ccc(OC)cc2)CNC(C)(C)C)cc1 (configuration not stated)	> 10000	1120	1190
CC(C)n1nnnc1CN1CCN(c2ccccc2F)CC1	> 10000	> 1480	> 1190
COc1ccc(CCNc2nc(NCCCN(C)C)ncc2C(=O)NCc2ccccc2)cc1OC	> 10000	605	> 1190
O=C1CC(c2cccc([N+](=O)[O-])c2)c2cc3c(cc2N1)OCO3 (configuration not stated)	> 100000	> 10200	> 11800
COc1ccc(C2C(C(N)=O)=C(C)Nc3ncnn32)cc1OC (configuration not stated)	> 10000	380	1150
N#C/C(=C\c1cn(Cc2ccc(Cl)cc2Cl)c2ccccc12)c1nc2ccccc2[nH]1	> 10000	315	1150
CC(C)CNC(=O)c1cnc(NCCCN2CCCCC2C)nc1NCC1CCCCC1 (configuration not stated)	> 10000	434	1170
COc1ccc(OCC(=O)Nc2c(C)n(C)n(-c3ccccc3)c2=O)cc1	> 10000	> 1250	> 1160
COc1ccc(CCNC(=O)c2cc(S(=O)(=O)N3CCC4(CC3)OCCO4)ccc2F)cc1OC	> 10000	> 1250	> 1160
CCOC(=O)c1cnc2ccc(OCC)cc2c1NCC1CCCN1CC (configuration not stated)	> 10000	> 740	1150

SMILES	CC50 [1] [nM]	EC50 [2] [nM]	EC50 [3] [nM]
NCCNC(=O)COC(c1cccnc1)c1ccccc1Cl (configuration not stated)	> 10000	> 1250	> 1150
Cn1c(=O)c2c(ncn2CC(O)CN2CCCC2)n(C)c1=O (configuration not stated)	> 10000	> 1250	> 1190
CCN(CC)c1ccc(/C=C/C23NC(=O)CCN2c2ccc(C)cc2C3(C)C)cc1 (configuration not stated)	> 10100	1620	1210
N=C(NN=Cc1cccc([N+](=O)[O-])c1)SC1CC(=O)N(c2cc(Cl)ccc2Cl)C1=O (configuration not stated)	> 10000	> 1250	> 1190
CCCN[P+](CC(C)C)(NCCC)NCCC	3340	211	398
COc1ccc(-c2cncc3ccc(C(=O)NCc4ccncc4)nc23)cc1	> 10000	> 1350	1190
CCOC(=O)c1c(NC(=O)CSc2nnc(CNC(=O)c3cccc(C)c3)n2-c2cccc(C)c2)sc2c1CCC2	> 10000	> 1600	> 1190
COc1ccc(/C=C2\N=C(c3ccc(Cl)cc3)N(c3ccccc3)C2=O)cc1OC	> 10000	> 1250	> 1150
O=c1[nH]c2cc(Cl)c(Br)nc2[nH]1	> 10000	> 1250	1180
C=CCOC(=O)C1=C(C)N=C2SCCC(=O)N2C1c1ccc(OC(=O)c2ccco2)cc1 (configuration not stated)	> 100000	> 12400	> 11900
COc1ccccc1-n1c(=O)c2c3c(sc2n2c(C)nnc12)CCC3	> 10000	> 1250	> 1190
CC(=O)Nc1sc(C)c(C)c1N=Nc1ccc(S(=O)(=O)O)cc1	> 10000	1150	> 1180
CN1C2CCC1/C(=C\c1ccsc1)C(=O)/C2=C\c1ccsc1	> 10000	> 1300	> 1190
CN(C)c1ccc(/C=C/c2cccc(/C=C/c3ccc(N(C)C)cc3)[n+]2C)cc1	2530	210	296
O=C(Nc1ccccc1)Nc1ccc(S(=O)(=O)Nc2ccc(Br)cc2)cc1	> 10000	662	1160
N#Cc1nc(-c2ccccc2)c(-c2ccc(-c3nc(C#N)c(C#N)nc3-c3ccccc3)cc2)nc1C#N	> 10000	1610	1160
COc1ccc(N(CCCNC(=O)CCl)C(=O)Nc2cccc(Cl)c2)cc1	> 10000	> 1600	1150
COC(=O)[C@@H]1C[C@@H](NC(=O)c2ccccc2F)CN1CC(c1ccccc1)c1ccccc1	> 10000	1060	> 1180
Clc1ccc2c(c1)c(-c1ccccc1)nc1nnnn12	> 10000	> 1250	> 1180
CC1(c2ccccc2)CC(c2ccccc2)=Nc2nonc2N1 (configuration not stated)	> 10000	586	1170
Clc1cccc(C(Nc2cccnc2)(c2ccccc2)c2ccccc2)c1	> 10000	618	1190
CCN(CC)CCCC(C)Nc1c2ccc(Cl)cc2nc2ccc(OC)nc12 (configuration not stated)	> 6250	744	746
COc1ccccc1/C=C/CN1CCN(c2ccccn2)CC1	> 10000	> 1630	> 1150
COc1cc(CN(C)c2ccc3nc(N)nc(N)c3c2)cc(OC)c1OC	> 10000	7.31	1190
COc1ccccc1CNc1ncc(C(=O)NCCCN2CCCC2=O)c(NCCc2ccccc2)n1	> 10000	214	1190
CCN(c1ccc(F)cc1)S(=O)(=O)c1ccc2[nH]cc(C(=O)NCCC(C)C)c(=O)c2c1	> 10000	> 1250	> 1150
CCc1ccc(C(=O)N2CCCn3cccc3C2c2ccc(C(C)(C)C)cc2)cc1 (configuration not stated)	> 10000	> 1250	1160

Source: ChEMBL document CHEMBL1156829 (Proc Natl Acad Sci U S A, 2008)
